Where a chain is given by its changes, count along the chain named.
Assays:
[1] = molecular target: T1, β-glucocerebrosidase Wild Type (WT) (Homo sapiens, UniProt P04062); test: β-glucocerebrosidase activity enhancement, Wild Type (WT); assay type: cell-based; details: increase in enzyme activity vs non-treated cells
T1 construct: endogenous in cells
T1 sequence (P04062 40-536): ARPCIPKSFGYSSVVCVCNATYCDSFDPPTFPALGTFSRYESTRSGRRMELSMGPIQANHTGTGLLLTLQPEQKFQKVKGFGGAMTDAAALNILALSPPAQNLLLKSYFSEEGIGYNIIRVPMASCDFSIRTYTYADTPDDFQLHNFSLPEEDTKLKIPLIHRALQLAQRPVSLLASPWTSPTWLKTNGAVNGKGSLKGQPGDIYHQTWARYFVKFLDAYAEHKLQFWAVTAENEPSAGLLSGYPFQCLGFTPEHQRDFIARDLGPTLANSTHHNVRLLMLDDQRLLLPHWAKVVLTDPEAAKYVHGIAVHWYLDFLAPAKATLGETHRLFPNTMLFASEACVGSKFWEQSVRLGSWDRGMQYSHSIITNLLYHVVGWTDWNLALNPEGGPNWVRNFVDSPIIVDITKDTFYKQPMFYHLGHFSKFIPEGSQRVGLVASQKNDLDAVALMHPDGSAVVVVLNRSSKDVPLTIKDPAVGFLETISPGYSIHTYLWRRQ
Method: (§1) Fibroblasts were seeded at 5×10^3 cells per well in 96-well cell culture plates (Corning, N.Y., USA) in Dulbecco's Modified Eagle's Media (DMEM) supplemented with 10% of fetal bovine serum (FBS), 1% penicillin/streptomycin (P/S) (Thermo Fisher Scientific, Waltham, Mass., USA) and grown at 37° C., 5% CO2 overnight for cell attachment. Subsequently, cells were incubated in the absence or presence of the compounds at the desired concentration for 4 days. After incubation, cells were washed twice with phosphate-buffered saline (PBS) and enzyme activity assay was performed.
(§2) β-glucocerebrosidase activity in intact cultured cells was measured by using 4-methylumbelliferyl-β-D-glucopyranoside substrate (Apollo Scientific, UK). Briefly, cells were incubated with 4-MU-β-D-glucopyranoside in 0.1 M acetate buffer pH=4 at 37° C. for 1 hour. […] The liberated 4-MU was measured on a GloMax Discover plate reader (Promega, Madison, Wis., USA) with and excitation at 340 nm and emission at 460 nm. Enzyme activities were expressed in treated cells as X-fold increase in comparison with non-treated cells (X=1 represents no enhancement).
(§3) The following compounds listed in Table 2 were purchased (from Enamine, Princeton, Asinex, Vistas-M, and OSSK_541352) and tested in the assay as described above.

[2] = molecular target: T2, β-glucocerebrosidase, p.L444P mutation (GM08760A fibroblasts) (Homo sapiens, UniProt P04062, L483P); test: Enhancement of β-glucocerebrosidase activity measured in Gaucher disease fibroblasts (L444P); assay type: cell-based; details: increase in enzyme activity vs non-treated cells, GBA fibroblasts bearing L444P
T2 construct: host or cells: human Gaucher patient fibroblasts GM08760A, homozygous L444P
T2 sequence (P04062 40-536 L483P): T1 sequence (P04062 40-536) with L444P
Method: Enhancement of β-Glucocerebrosidase Activity Measured in Gaucher Disease Fibroblasts Materials
Human fibroblasts from a patient with Gaucher disease homozygous for p.L444P mutation (GM08760A) were purchased from Coriell Institute for Medical Research (Camden, N.J., USA).
as §1, §2
The capacity of the compounds of the disclosure to produce an increase in enzyme activity in GBA fibroblasts bearing L444P at concentrations between 6 and 50 μM is denoted as follows:
as §3

[3] = commercially available compounds, 6-50 μM, 4 days
[4] = concentrations between 6 and 50 μM, 4 days incubation

SMILES	Activity L444P [2, 3]	Activity L444P [2, 4]	also measured
Nc1nc(CN2CCN(c3cccc(Cl)c3)CC2)nc(Nc2ccc3c(c2)OCCO3)n1 [6-((4-(3-chlorophenyl)piperazin-1-yl)methyl)-N2-(2,3-dihydrobenzo[b][1,4]dioxin-6-yl)-1,3,5-triazine-2,4-diamine]	B (Increase in comparison with non-treated of >1.7-2.0 fold is shown as B)		Activity WT ([1]; commercially available compounds): C (Increase in comparison with non-treated of 1.2-1.7 fold is shown as C)
COc1cccc(N2CCN(Cc3nc(N)nc(Nc4ccc(C)cc4)n3)CC2)c1 [6-((4-(3-methoxyphenyl)piperazin-1-yl)methyl)-N2-(p-tolyl)-1,3,5-triazine-2,4-diamine]	C (Increase in comparison with non-treated of 1.2-1.7 fold is shown as C)		
Cc1ccc(Nc2cc(CN(C)Cc3cccc(C)c3)nc(N)n2)cc1 [Example 32, 6-((Methyl(3-methylbenzyl)amino)methyl)-N^4-p-tolylpyrimidine-2,4-diamine]		C (Increase in comparison with non-treated of 1.2-1.7 fold is shown as C)	
COc1cccc(Nc2cc(CN(C)Cc3cccc(C)c3)nc(N)n2)c1 [Example 38]		B (Increase in comparison with non-treated of >1.7-2.0 fold is shown as B)	
Nc1nc(CN(Cc2ccc(F)cc2)C2CC2)nc(Nc2ccc(F)cc2)n1 [6-((cyclopropyl(4-fluorobenzyl)amino)methyl)-N2-(4-fluorophenyl)-1,3,5-triazine-2,4-diamine]	C (Increase in comparison with non-treated of 1.2-1.7 fold is shown as C)		
CN(Cc1ccccc1)Cc1nc(N)nc(Nc2ccc(C#N)cc2)n1 [Example 11, 4-(4-Amino-6-((benzyl(methyl)amino)methyl)-1,3,5-triazin-2-ylamino)benzonitrile]		C (Increase in comparison with non-treated of 1.2-1.7 fold is shown as C)	
COc1cccc(CN(C)Cc2cc(Nc3ccc(C)cc3)nc(N)n2)c1 [Example 53, 6-(((3-Methoxybenzyl)(methyl)amino)methyl)-N^4-p-tolylpyrimidine-2,4-diamine]		C (Increase in comparison with non-treated of 1.2-1.7 fold is shown as C)	
CN(Cc1ccccc1)Cc1cc(Nc2ccc(Cl)cc2)nc(N)n1 [Example 21, 6-((benzyl(methyl)amino)methyl)-N^4-(4-chlorophenyl)pyrimidine-2,4-diamine]		B (Increase in comparison with non-treated of >1.7-2.0 fold is shown as B)	
COc1ccc(Nc2cc(N)nc(CN(C)Cc3ccccc3)n2)cc1 [Example 66, 2-((Benzyl(methyl)amino)methyl)-N^4-(4-methoxyphenyl)pyrimidine-4,6-diamine]		B (Increase in comparison with non-treated of >1.7-2.0 fold is shown as B)	
COc1ccccc1Nc1nc(N)nc(CN(C)Cc2ccc3ccccc3c2)n1 [N2-(2-methoxyphenyl)-6-((methyl(naphthalen-2-ylmethyl)amino)methyl)-1,3,5-triazine-2,4-diamine]	B (Increase in comparison with non-treated of >1.7-2.0 fold is shown as B)		
COc1ccc(Nc2nc(N)nc(CN(C)c3ccccc3)n2)cc1 [Example 2, N^2-(4-Methoxyphenyl)-6-((methyl(phenyl)amino)methyl)-1,3,5-triazine-2,4-diamine]		C (Increase in comparison with non-treated of 1.2-1.7 fold is shown as C)	
Cc1ccc(Nc2nc(N)nc(CN(C)CCOc3ccc(Cl)cc3)n2)cc1 [6-(((2-(4-chlorophenoxy)ethyl)(methyl)amino)methyl)-N2-(p-tolyl)-1,3,5-triazine-2,4-diamine]	C (Increase in comparison with non-treated of 1.2-1.7 fold is shown as C)		
CN(Cc1cccc(F)c1)Cc1nc(N)nc(Nc2ccc(Cl)cc2)n1 [N2-(4-chlorophenyl)-6-(((3-fluorobenzyl)(methyl)amino)methyl)-1,3,5-triazine-2,4-diamine]	C (Increase in comparison with non-treated of 1.2-1.7 fold is shown as C)		
Cc1ccc(Nc2nc(N)nc(CNC3CCc4ccccc4C3)n2)cc1 (stereo not drawn) [Example 27, 6-(((1,2,3,4-Tetrahydronaphthalen-2-yl)amino)methyl)-N-(p-tolyl)-1,3,5-triazine-2,4-diamine]		C (Increase in comparison with non-treated of 1.2-1.7 fold is shown as C)	
CN(Cc1ccccc1)Cc1cc(Nc2ccc3cnccc3c2)nc(N)n1 [Example 31, 6-((Benzyl(methyl)amino)methyl)-N^4-(isoquinolin-6-yl)pyrimidine-2,4-diamine]			Activity Wild Type (WT) [1]: A (Increase in comparison with non-treated of >2.0 fold is shown as A)
COc1ccccc1Nc1nc(N)cc(CN2CCc3ccccc3C2)n1 [Example 71, (6-((3,4-Dihydroisoquinolin-2(1H)-yl)methyl)-N-(2-methoxyphenyl)pyrimidine-2,4-diamine)]		C (Increase in comparison with non-treated of 1.2-1.7 fold is shown as C)	
Cc1ccc(Nc2nc(N)nc(CN(C)Cc3ccco3)n2)cc1 [6-(((furan-2-ylmethyl)(methyl)amino)methyl)-N2-(p-tolyl)-1,3,5-triazine-2,4-diamine]	C (Increase in comparison with non-treated of 1.2-1.7 fold is shown as C)		
Cc1ccc(Nc2cc(CN(C)Cc3cccnc3)nc(N)n2)cc1 [Example 61, 6-((Methyl(pyridin-3-ylmethyl)amino)methyl)-N^4-p-tolylpyrimidine-2,4-diamine]		C (Increase in comparison with non-treated of 1.2-1.7 fold is shown as C)	
Cc1ccccc1Nc1nc(N)nc(CN(C)c2ccccc2)n1 [6-((methyl(phenyl)amino)methyl)-N2-(o-tolyl)-1,3,5-triazine-2,4-diamine]	C (Increase in comparison with non-treated of 1.2-1.7 fold is shown as C)		
Cc1cccc(Nc2cc(CN(C)Cc3cccc(C#N)c3)nc(N)n2)c1 [Example 39, 3-((((2-Amino-6-(m-tolylamino)pyrimidin-4-yl)methyl)(methyl)amino)methyl) benzonitrile]		C (Increase in comparison with non-treated of 1.2-1.7 fold is shown as C)	
Cc1ccc(Nc2cc(CN(C)Cc3cccc(C#N)c3)nc(N)n2)cc1 [Example 55, 3-((((2-Amino-6-(p-tolylamino)pyrimidin-4-yl)methyl)(methyl)amino)methyl)benzonitrile]		B (Increase in comparison with non-treated of >1.7-2.0 fold is shown as B)	
CN(Cc1ccccc1)Cc1cc(Nc2cccc(C#N)c2)nc(N)n1 [Example 29, 3-(2-Amino-6-((benzyl(methyl)amino)methyl)pyrimidin-4-ylamino)benzonitrile]		B (Increase in comparison with non-treated of >1.7-2.0 fold is shown as B)	
COCCN(Cc1ccccc1)Cc1cc(Nc2cccc(OC)c2)nc(N)n1 [Example 49, 6-((Benzyl(2-methoxyethyl)amino)methyl)-N^4-(3-methoxyphenyl)pyrimidine-2,4-diamine]		C (Increase in comparison with non-treated of 1.2-1.7 fold is shown as C)	

Reference: patent US11174242B2, “Heteroaryl compounds and their use” (Minoryx Therapeutics S.L., priority 2016, dated 2021)
